# Test results from PMC2725396 (Clinical cancer research : an official journal of the …, 2008).
# “And” between values parts separate entries of the source, which are not always exact repeats. Equal values may be shown once. Read-outs that look alike come from different tables or passages of the source.
# Assays:
# BCRP [1] = target: T1, BCRP (Homo sapiens, UniProt Q9UNQ0); experiment: Topotecan accumulation by flow microfluorimetry in MDA-MB-231/BCRP cells; type: cell-based
# T1 sequence (Q9UNQ0 1-655): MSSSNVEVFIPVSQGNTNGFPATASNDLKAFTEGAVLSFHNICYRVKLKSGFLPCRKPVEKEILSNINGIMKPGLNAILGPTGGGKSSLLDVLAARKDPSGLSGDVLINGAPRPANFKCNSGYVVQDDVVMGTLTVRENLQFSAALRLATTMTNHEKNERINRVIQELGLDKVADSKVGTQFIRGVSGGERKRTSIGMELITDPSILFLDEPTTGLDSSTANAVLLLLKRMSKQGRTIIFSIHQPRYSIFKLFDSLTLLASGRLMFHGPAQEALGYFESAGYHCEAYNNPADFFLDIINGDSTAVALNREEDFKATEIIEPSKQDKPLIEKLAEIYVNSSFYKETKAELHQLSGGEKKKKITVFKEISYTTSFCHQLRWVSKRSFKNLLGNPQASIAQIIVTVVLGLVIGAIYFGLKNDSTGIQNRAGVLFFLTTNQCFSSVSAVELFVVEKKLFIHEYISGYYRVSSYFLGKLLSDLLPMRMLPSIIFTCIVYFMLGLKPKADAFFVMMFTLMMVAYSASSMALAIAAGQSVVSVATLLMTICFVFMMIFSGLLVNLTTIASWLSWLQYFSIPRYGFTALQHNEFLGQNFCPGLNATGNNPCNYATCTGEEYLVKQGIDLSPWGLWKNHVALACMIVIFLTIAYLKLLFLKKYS
# [2] = system: MDA-MB-231/empty vector cells; experiment: Topotecan accumulation by flow microfluorimetry in MDA-MB-231/empty vector cells; type: cell-based; details: MDA-MB-231 cells transfected with empty vector
# [3] = system: MDA-MB-231/empty vector cells; experiment: Clonogenic assay with topotecan plus lapatinib in MDA-MB-231/empty vector cells; type: cell-based; details: MDA-MB-231 cells transfected with empty vector, 1 µmol/L lapatinib, 24 h
# Pgp [4] = target: Pgp (Cricetulus griseus, UniProt P21448); experiment: Topotecan accumulation by flow microfluorimetry in CH^RC5 cells; type: cell-based, Chinese hamster; details: 1,000 nmol/L lapatinib, n = 3
# Pgp (Cricetulus griseus, UniProt P21448), sequence (P21448 whole entry): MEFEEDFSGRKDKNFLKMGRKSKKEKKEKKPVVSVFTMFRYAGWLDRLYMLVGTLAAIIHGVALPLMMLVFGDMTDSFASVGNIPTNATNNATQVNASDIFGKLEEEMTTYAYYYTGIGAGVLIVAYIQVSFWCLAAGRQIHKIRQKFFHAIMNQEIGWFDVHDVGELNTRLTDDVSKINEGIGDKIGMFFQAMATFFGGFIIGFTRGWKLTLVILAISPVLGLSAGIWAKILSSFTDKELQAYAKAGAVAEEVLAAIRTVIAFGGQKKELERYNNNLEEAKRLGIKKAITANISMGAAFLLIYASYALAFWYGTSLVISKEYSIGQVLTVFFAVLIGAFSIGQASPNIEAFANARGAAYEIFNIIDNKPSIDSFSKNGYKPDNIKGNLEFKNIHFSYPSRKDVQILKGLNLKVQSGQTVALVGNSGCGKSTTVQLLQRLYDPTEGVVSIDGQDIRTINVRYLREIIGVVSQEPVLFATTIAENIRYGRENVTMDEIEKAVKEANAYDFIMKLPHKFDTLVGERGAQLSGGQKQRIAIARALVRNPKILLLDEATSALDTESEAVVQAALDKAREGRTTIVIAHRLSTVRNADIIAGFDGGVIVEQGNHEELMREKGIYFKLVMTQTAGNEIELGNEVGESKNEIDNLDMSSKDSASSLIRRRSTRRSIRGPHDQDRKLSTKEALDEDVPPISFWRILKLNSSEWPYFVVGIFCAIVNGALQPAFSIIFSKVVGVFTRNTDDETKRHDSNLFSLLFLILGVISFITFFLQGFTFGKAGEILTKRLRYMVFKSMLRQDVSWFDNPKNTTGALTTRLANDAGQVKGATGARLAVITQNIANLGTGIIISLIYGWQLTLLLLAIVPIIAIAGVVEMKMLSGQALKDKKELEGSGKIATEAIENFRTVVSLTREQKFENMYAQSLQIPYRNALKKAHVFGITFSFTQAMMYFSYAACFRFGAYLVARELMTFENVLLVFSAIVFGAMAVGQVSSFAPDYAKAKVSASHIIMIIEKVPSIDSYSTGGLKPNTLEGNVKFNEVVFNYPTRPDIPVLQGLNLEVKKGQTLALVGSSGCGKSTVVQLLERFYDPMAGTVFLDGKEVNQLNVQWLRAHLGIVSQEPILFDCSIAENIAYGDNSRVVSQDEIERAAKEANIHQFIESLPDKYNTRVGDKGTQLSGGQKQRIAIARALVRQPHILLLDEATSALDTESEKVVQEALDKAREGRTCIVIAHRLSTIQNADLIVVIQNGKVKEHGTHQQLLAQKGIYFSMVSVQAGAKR
# AuxB1 cells = experiment: Topotecan accumulation by flow microfluorimetry in AuxB1 cells; type: cell-based, Chinese hamster; details: AuxB1 cells (lower Pgp), compared with CH^RC5
# [5] = system: BT474 human breast carcinoma xenografts; experiment: BT474 xenograft tumor growth inhibition; type: in vivo, CB-17 SCID mice
# [6] = system: patients with advanced solid tumors; experiment: Phase I trial: MTD, DLTs and adverse events; type: in vivo, human
# [7] = type: in vivo, human; details: fit of CLNRF ratio versus lapatinib steady-state Cmin, ±35%
# Pgp [8] = details: cited from earlier work
# BCRP [9] = target: T1, BCRP; details: read-out: in vitro Ki for inhibition of BCRP; cited from earlier work
# [10] = cited from earlier work
# [11] = single agent, cited from earlier work
# [12] = Phase I trial: plasma pharmacokinetics of topotecan and lapatinib; details: for AUC(0-t) / Cmax / Topotecan CLp: n = 9, geometric mean and 95% CI; for Cmax: Topotecan Cmax; for half-life / Topotecan CLNRF / Topotecan Vss: geometric mean and 95% CI; for Topotecan CLNRF: CLp minus CLCR
# [13] = geometric least squares mean ratio and 90% CI
smiles,measurement,setting,value
CS(=O)(=O)CCNCc1ccc(-c2ccc3ncnc(Nc4ccc(OCc5cccc(F)c5)c(Cl)c4)c3c2)o1 [lapatinib],EC50,BCRP [1],250 nM
same,effect on intracellular topotecan,[2],little effect
same,effect on topotecan-induced inhibition of colony formation,[3],little effect
same,"intracellular topotecan, % of steady-state accumulation in the absence of lapatinib",Pgp [4],220 ± 20%
same,effect on intracellular topotecan,AuxB1 cells,more modest
same,inhibition of BT474 tumor growth,"[5]; lapatinib 30 mg/kg oral twice daily 21 d, study 2, day 70",26%
same,inhibition of BT474 tumor growth,"[5]; lapatinib 60 mg/kg oral twice daily 21 d, study 1, day 56",79%
same,inhibition of BT474 tumor growth,"[5]; lapatinib 100 mg/kg oral twice daily 21 d, study 1, day 56",77%
same,inhibition of BT474 tumor growth,"[5]; lapatinib 100 mg/kg oral twice daily 21 d, study 2, day 70",82%
same,MTD and recommended phase II dose of lapatinib in the combination,[6]; for 28 days of a 28-day cycle,"1,250 mg/d"
same,Ki (lapatinib concentration producing 50% inhibition of topotecan CLNRF),[7],"2,349 ng/mL"
same,in vitro Ki for inhibition of Pgp,Pgp [8],"2,300 ng/mL"
same,Ki,Pgp [8]; read-out: in vitro Ki for inhibition of Pgp,3900 nM
same,Ki,BCRP [9],24.1 nM and 25 nM
same,Lapatinib AUC in mice,[10]; 30 mg/kg orally twice daily,5000 ng·h/mL
same,Lapatinib Cmax in mice,[10]; 30 mg/kg orally twice daily,1000 ng/mL
same,Lapatinib AUC in mice,[10]; 60 mg/kg orally twice daily,29000 ng·h/mL
same,Lapatinib Cmax in mice,[10]; 60 mg/kg orally twice daily,4000 ng/mL
same,Lapatinib AUC in mice,[10]; 100 mg/kg orally twice daily,94000 ng·h/mL
same,Lapatinib Cmax in mice,[10]; 100 mg/kg orally twice daily,9000 ng/mL
same,dose up to which lapatinib was well tolerated in phase I trials,[11]; diarrhea and rash dose limiting,"up to 1,800 mg/d"
same,AUC(0-t),"[12]; human, plasma, oral, Lapatinib AUC0–24 h, lapatinib + topotecan (day 8)",31700 ng·h/mL
same,AUC(0-t),"[12]; human, plasma, oral, Lapatinib AUC0–24 h, lapatinib alone (day 7)",23300 ng·h/mL
same,Tmax,"[12]; human, plasma, oral, Lapatinib Tmax, lapatinib alone (day 7), median and range",3 h
CC[C@@]1(O)C(=O)OCc2c1cc1n(c2=O)Cc2cc3c(CN(C)C)c(O)ccc3nc2-1 [topotecan],inhibition of BT474 tumor growth,"[5]; topotecan alone 6 mg/kg i.p. every 4 d × 3, study 2",53%
same,inhibition of BT474 tumor growth,"[5]; topotecan alone 10 mg/kg i.p. every 4 d × 3, study 1",66%
same,inhibition of BT474 tumor growth,"[5]; topotecan alone 10 mg/kg i.p. every 4 d × 3, study 2",65%
same,MTD and recommended phase II dose of topotecan in the combination,"[6]; i.v. on days 1, 8, 15 of a 28-day cycle",3.2 mg/m^2
same,MTD for topotecan alone,[11]; × 3,4 mg/m^2/wk
same,topotecan doses at which neutropenia is the principal toxicity,[11],above 4 mg/m^2/wk
same,increase of topotecan AUC0–24 h in the presence of lapatinib,[12]; (7–29%),18%
same,decrease of topotecan CLNRF when administered with lapatinib,[12]; (12–32%),22%
same,decrease in topotecan CLp when administered with lapatinib,[12]; day 8 versus day 1,16%
same,"Topotecan AUC0–24 h, day 8:day 1 ratio",[12]; [13],1.18 (1.07–1.29)
same,"Topotecan CLNRF, day 8:day 1 ratio",[12]; [13],0.78 (0.68–0.88)
same,"Topotecan CLp, day 8:day 1 ratio",[12]; [13],0.84 (0.76–0.92)
same,"Topotecan Cmax, day 8:day 1 ratio",[12]; [13],0.79 (0.66–0.92)
same,"Topotecan Vss, day 8:day 1 ratio",[12]; [13],0.99 (0.90–1.08)
same,"Topotecan t1/2, day 8:day 1 ratio",[12]; [13],1.01 (0.96–1.06)
same,AUC(0-t),"[12]; human, plasma, intravenous, Topotecan AUC0–24 h, lapatinib + topotecan (day 8)",510 ng·h/mL
same,AUC(0-t),"[12]; human, plasma, intravenous, Topotecan AUC0–24 h, topotecan alone (day 1)",432 ng·h/mL
same,Cmax,"[12]; human, plasma, intravenous, lapatinib + topotecan (day 8)",128 ng/mL
same,Cmax,"[12]; human, plasma, intravenous, topotecan alone (day 1)",162 ng/mL
same,half-life,"[12]; human, plasma, intravenous, Topotecan t1/2, lapatinib + topotecan (day 8)",4.35 h
same,half-life,"[12]; human, plasma, intravenous, Topotecan t1/2, topotecan alone (day 1)",4.3 h
same,Topotecan CLNRF,[12]; lapatinib + topotecan (day 8),4.11 (2.72–5.50) L/h/m^2
same,Topotecan Vss,[12]; lapatinib + topotecan (day 8),30.1(23.9–36.3) L/m^2
same,Topotecan CLp,[12]; lapatinib + topotecan (day 8),6.14 L/h/m^2
same,Topotecan CLp,"[12]; lapatinib + topotecan (day 8), listed as Topotecan",6.14 (4.27–8.01) L/h/m^2
same,topotecan CLNRF as % of CLp,[12]; topotecan administered alone,72%
same,Topotecan CLNRF,[12]; topotecan alone (day 1),5.25 (3.99–6.51) L/h/m^2
same,Topotecan Vss,[12]; topotecan alone (day 1),30.5 (26.5–34.5) L/m^2
same,Topotecan CLp,[12]; topotecan alone (day 1),7.28 L/h/m^2
same,Topotecan CLp,"[12]; topotecan alone (day 1), listed as Topotecan",7.28 (5.35–8.91) L/h/m^2
same,topotecan CLNRF as % of CLp,[12]; topotecan and lapatinib administered together,66%
